# According to PubChem BioAssay (NCI):
# Where “and” joins values, the source holds several entries; their conditions need not be identical. Equal values may be shown once.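 The compound was tested at five concentrations on cells cultured in 96-well plates, with a 48-hour exposure period. GI50: concentration for 50% inhibition of growth. The concentration for full growth arrest is given as TGI.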
# Tests used:
# Assay in all cases: NCI tumour cell line growth inhibition, 48 h
# DMS 273 small cell lung = tested on: DMS 273 small cell lung
# SN12K1 renal = tested on: SN12K1 renal
# KM20L2 colon = tested on: KM20L2 colon
# M19-MEL melanoma = tested on: M19-MEL melanoma
# XF 498 CNS = tested on: XF 498 CNS
# DMS 114 small cell lung = tested on: DMS 114 small cell lung
# MDA-N = tested on: MDA-N
# SNB-78 CNS = tested on: SNB-78 CNS
# P388 leukemia = tested on: P388 leukemia
# P388/ADR leukemia = tested on: P388/ADR leukemia
# HOP-18 NSCLC = tested on: HOP-18 NSCLC
# RXF-631 renal = tested on: RXF-631 renal
SMILES,TGI (DMS 273 small cell lung) [µM],TGI (KM20L2 colon) [µM],TGI (M19-MEL melanoma),TGI (XF 498 CNS),TGI (DMS 114 small cell lung),TGI (MDA-N) [µM],TGI (SNB-78 CNS) [µM],TGI (HOP-18 NSCLC) [µM],TGI (RXF-631 renal) [µM],other results
Cc1c2cnccc2c(C)c2c1c1ccccc1n2CCOC(=O)c1ccccc1,18,50.5,31.8 µM,5.64 µM,30.6 µM,> 100,85.4,> 100,–,TGI (SN12K1 renal): 26.6 µM; TGI (P388 leukemia): 41.4 µM; TGI (P388/ADR leukemia): 35.1 µM
COc1ccc(C(=O)C(C(=O)CCC(=O)Nc2ccc(Cl)c(Cl)c2)c2ccc(OC)cc2)cc1 (stereo unspecified),> 100,> 100,> 100 µM,> 100 µM,> 100 µM,–,> 100,> 100,> 100,–
O=S1OC(c2ccccc2)(c2ccccc2)C(c2ccccc2)(c2ccccc2)O1,> 100,> 100,> 100 µM,> 100 µM,> 100 µM,–,> 100,> 100,> 100,–
CC(=O)C1(O)CC2(c3ccccc3)C(=O)C1(c1ccccc1)C(c1ccccc1)=C2c1ccccc1 (stereo unspecified),> 100,> 100,> 100 µM,> 100 µM,> 100 µM,–,> 100,–,> 100,–
CC[C@@]1(OP(=O)(O)O)C(=O)OCc2c1cc1n(c2=O)Cc2cc3ccccc3nc2-1,0.194,–,6.47 µM and 2.05 µM,2.21 µM and 9.34 µM,0.509 µM and 3.37 µM,4.59,> 100,44.4,–,GI50 (KM20L2 colon): 0.458 µM; GI50 (M19-MEL melanoma): 0.25 µM; GI50 (XF 498 CNS): 1.88 µM; GI50 (DMS 114 small cell lung): 0.0678 µM; GI50 (SNB-78 CNS): 3.81 µM; GI50 (HOP-18 NSCLC): 0.408 µM
N#CC(C(=O)CCCC(=O)Nc1ccccc1[N+](=O)[O-])c1c(Cl)cccc1Cl (stereo unspecified),> 100,> 100,> 100 µM,> 100 µM,> 100 µM,–,> 100,> 100,> 100,–
COc1ccc(C2COc3c(ccc(OC)c3OC)C2=O)cc1OC (stereo unspecified),–,> 100,> 100 µM,> 100 µM,> 100 µM,–,> 100,> 100,–,–
O=C(CCc1nnc2s/c(=C\c3ccc([N+](=O)[O-])cc3)c(=O)n12)Nc1ccc(Cl)c(Cl)c1,54.4,> 100,> 100 µM,45.5 µM,33.4 µM,–,52.8,–,> 100,–
O=C([CH-]C(=O)c1ccccc1)c1ccccc1.O=C([CH-]C(=O)c1ccccc1)c1ccccc1.O=C([CH-]C(=O)c1ccccc1)c1ccccc1.[Ga+3],–,> 100,–,–,–,–,–,> 100,–,GI50 (KM20L2 colon): 59.2 µM; GI50 (HOP-18 NSCLC): 39.7 µM
O=P1(NCCCl)OCCCN1CCCl (stereo unspecified),410,434,440 µM,436 µM,438 µM,> 500,451,124,–,TGI (SN12K1 renal): 430 µM; TGI (P388 leukemia): 293 µM; TGI (P388/ADR leukemia): 315 µM
COc1ccc2c(c1)[C@@H](NC(C)=O)CCc1cc(OC)c(OC)c(OC)c1-2,> 100,–,> 100 µM,16.2 µM,0.366 µM,< 0.0204,> 100,> 100,–,–
NC(N)NCCCc1cn2c(n1)C1CCCN1C(=O)C2Cc1ccccc1 (stereo unspecified),> 100,> 100,> 100 µM,> 100 µM,> 100 µM,–,> 100,–,> 100,–
Cn1cc(C2NC(=O)c3ccccc3N2)c2ccccc21 (stereo unspecified),–,–,–,–,–,0.591,–,–,–,–
O=C(CCc1n[nH]c(=S)o1)Nc1cc(Cl)ccc1Cl,36.1,> 100,> 100 µM,–,–,–,> 100,> 100,–,–
CC1CCCCCC(=O)c2c(O)cc(O)cc2CC(=O)O1 (stereo unspecified),–,–,–,–,–,> 100,–,–,–,–
O=C1C2C3CC4C5C3C1C5C1(SCCS1)C42 (stereo unspecified),> 100,> 100,> 100 µM,–,> 100 µM,–,> 100,> 100,–,–
C=C(CO)C(=O)OC1CC(=C)C2CC(O)C(C)C2C2OC(=O)C(=C)C12 (stereo unspecified),–,–,–,–,–,38,–,–,–,–

SMILES,TGI (DMS 273 small cell lung) [µM],TGI (KM20L2 colon) [µM],TGI (M19-MEL melanoma),TGI (XF 498 CNS),TGI (DMS 114 small cell lung),TGI (MDA-N) [µM],TGI (SNB-78 CNS) [µM],TGI (HOP-18 NSCLC) [µM],TGI (RXF-631 renal) [µM],other results
Cc1ccc(S(=O)c2ccccc2[N+](=O)[O-])cc1 (stereo unspecified),> 100,–,> 100 µM,–,> 100 µM,–,> 100,–,> 100,–
CC(C)(CN1CCCCC1)C(=O)/C=C/c1ccccc1,36.5,28.1,52.3 µM,29.9 µM,42 µM,–,80.9,–,59,–
Cc1cc(N(CCC#N)CCC#N)ccc1/C=C(\NC(=O)/C=C/c1ccccc1)C(=O)N=[N+]=[N-],> 100,> 100,> 100 µM,69.9 µM,> 100 µM,–,> 100,–,–,–
CN(C)CCC(N)(P(=O)([O-])[O-])P(=O)([O-])[O-].N.N.[Pt+2],> 100,> 100,–,–,–,–,> 100,> 100,–,GI50 (DMS 273 small cell lung): > 100 µM; GI50 (KM20L2 colon): > 100 µM; GI50 (SNB-78 CNS): > 100 µM; GI50 (HOP-18 NSCLC): > 100 µM
CC(=O)OC(C)(C)C1CC[C@]2(C)/C=C/C(C)C[C@@H](O)/C=C(\C)CC(O)C12 (stereo partly specified),> 100,> 100,> 100 µM,–,> 100 µM,–,> 100,> 100,> 100,–
C[N+]1([O-])C2CCC1CC(OC(=O)C(CO)c1ccccc1)C2 (stereo unspecified),–,–,–,–,–,> 100,–,–,–,–
C=CC1(C)CCC2C(=CCC3C2(C)CC(O)C(O)C3(C)COC2OC(CO)C(O)C(O)C2O)C1 (stereo unspecified),–,–,–,–,–,> 100,–,–,–,–
C/C(=N/NC(=O)c1ccccc1S(N)(=O)=O)C(CN1CCCCC1)C(C1=C(O)C2C=CC=CC2OC1=O)c1ccccc1 (stereo unspecified),–,> 100,> 100 µM,> 100 µM,–,–,> 100,> 100,> 100,–
CCN(CC)CC(=O)NC1c2ccccc2Oc2ccccc21,> 100,> 100,> 100 µM,> 100 µM,> 100 µM,–,> 100,–,–,–
Cc1c(C(Cc2ccccc2N(C)C(=O)/C=C\C(=O)O)c2c[nH]c3ccccc23)c2ccccc2n1C (stereo unspecified),32.7,32.7,30.5 µM,36.9 µM,27.5 µM,–,53.8,–,27.9,–
C[C@@H]1C(=O)CC2C(C)(C)CCC[C@]2(C)[C@@]12CC[C@]1(C=COC1)O2 (stereo partly specified),> 100,> 100,> 100 µM,–,> 100 µM,–,> 100,> 100,–,–
CS(=O)(=O)OCCN(CCOS(C)(=O)=O)c1ccc(C=Nc2ccc(-c3csc(COc4ccccc4)n3)cc2)cc1,14.5,14.7,36 µM,6.85 µM,23.4 µM,31,66.4,19.2,–,–
O=C(/C=C/c1ccccc1)NC1C=Nc2ccc([N+](=O)[O-])cc2NC1=O (stereo unspecified),> 100,> 100,> 100 µM,> 100 µM,> 100 µM,–,> 100,–,–,–
NC1=C(O)c2cccc3cccc(c23)C1=O,> 100,> 100,> 100 µM,–,> 100 µM,–,> 100,> 100,> 100,–
O=C(O)/C=C/c1ccc(O)c(O)c1,> 100,> 100,> 100 µM,–,> 100 µM,–,> 100,> 100,> 100,–
COC(=O)C(=O)C(C#N)c1nc2ccccc2s1 (stereo unspecified),> 100,> 100,> 100 µM,> 100 µM,> 100 µM,–,> 100,–,> 100,–
